Test results published in patent US9050477B2, “Cosmetic compositions comprising oridonin and new cosmetic uses” (SEDERMA, priority 2009, dated 2015).

Experiments:
[1] = test system: Human melanocytes; assay: Melanogenesis of human melanocytes in monolayer (melanin content); assay type: cell-based; conditions: 5 days, n=4
Procedure: iii. Change in the Melanogenesis of Human Melanocytes in Monolayer
Human melanocytes were cultured and exposed with the test products for 5 days. After incubation the melanin content was measured in cell homogenates (n=4).

[2] = test system: reduced glutathione (GSH); assay: Stimulation of reduced glutathione (GSH) synthesis, ELISA; assay type: cell-based; conditions: human keratinocytes, 24 h
Procedure: c. Stimulation of Reduced Glutathione (GSH) Synthesis
Human keratinocytes at confluence are exposed 24 h to tested products. Intracellular GSH concentration was determined by ELISA.

[3] = test system: G3PDH; assay: Slimming: G3PDH activity in differentiating human preadipocytes; assay type: cell-based; conditions: for Act G3PDH: 10 days of differentiation, control 220.2 +/− 32.8; for Act G3PDH % Change: vs control
Procedure: Human preadipocytes are cultured and induced to differentiate in the presence of oridonin. After 10 days of differentiation, G3PDH activity was measured in cell homogenates as a marker of differentiation. (n=4).

[4] = Oxygen-Radical Absorbance Capacity (ORAC) test; assay type: biochemical; conditions: n = 6, vs control
Source text: a. Reduction in Peroxyl Radicals: ORAC Test
The Oxygen-Radical Absorbance Capacity (ORAC) test is a method enabling evaluation of the antioxidant capability of molecules and extracts of plant origin. […] The free radical-induced […] of fluorescein decreases its fluorescence. The antioxidant molecules will reduce this degradation

[5] = test system: chorioallantoic membrane; assay: Anti-redness effect: Het-CAM method; conditions: 5000 ppm aspirin (positive control); SDS irritant; irritant alone 10 +/− 1.63
Source text: b. Evaluation of the Anti-Redness Effect: Het-CAM Method The Het-CAM model is recommended as an alternative method for the evaluation of the irritant effect of cosmetics. The model uses eggs at a very early stage of development since the nervous system is not yet fully developed (JORF No. 300, Dec. 26, 1996). A moderately irritant product induces instantaneous changes in the capillary density of the chorioallantoic membrane. Previously invisible blood vessels become clearly visible under the effect of vasodilatation. This property was exploited to evaluate the effect of the combination of oridonin and darutoside. The combination oridonin+darutoside was applied to the surface of the chorioallantoic membrane and, after incubation, a surfactant, used as an SDS irritant agent, in an appropriate concentration, was applied to the surface of the membrane. A score was determined by an experienced operator and compared to that for the membranes exposed to the irritant alone (negative control) and that for the membranes exposed to aspirin, used as the positive control (JORF published method, modified).

darutoside
% Change/control (melanin content) ([1]; darutoside alone, 3.75 ppm): +1%; dns
% Change/control (melanin content) ([1]; darutoside alone, 5 ppm): +2%; dns
% Change/control (melanin content) ([1]; darutoside alone, 7.5 ppm): −4%; dns
% Change/control (melanin content) ([1]; darutoside alone, 10 ppm): −7%; p < 0.05
GSH change as % of control ([2]; darutoside 10 ppm): +3%; dns
GSH change as % of control ([2]; darutoside 15 ppm): +2%; dns

C=C1C(=O)[C@]23[C@H](O)[C@H]1CC[C@H]2[C@@]12CO[C@]3(O)[C@@H](O)[C@@H]1C(C)(C)CC[C@@H]2O [oridonin]
% Change/control (melanin content) ([1]; oridonin alone, 2.25 ppm): −23%; p < 0.01
% Change/control (melanin content) ([1]; oridonin alone, 3 ppm): −34%; p < 0.01
% Change/control (melanin content) ([1]; oridonin alone, 5 ppm (so in the source)): −21%; p < 0.01
% Change/control (melanin content) ([1]; oridonin alone, 125 ppm (so in the source)): −16%; p < 0.01
Act G3PDH ([3]; oridonin 2.7 ppm): 162.1 +/− 31.4 mU/10^6 cell
Act G3PDH % Change ([3]; oridonin 2.7 ppm): −26%; p < 0.05
Act G3PDH ([3]; oridonin 3.6 ppm): 127.7 +/− 19.2 mU/10^6 cell
Act G3PDH % Change ([3]; oridonin 3.6 ppm): −42%; p < 0.01
GSH change as % of control ([2]; oridonin 3 ppm): +41%; p < 0.01
GSH change as % of control ([2]; oridonin 4.5 ppm): +79%; p < 0.01
effect on the reduction of the destruction of fluorescein by free radicals ([4]; oridonin 1.5 ppm): +14%; p < 0.01
effect on the reduction of the destruction of fluorescein by free radicals ([4]; oridonin 3 ppm): +4%; dns
effect on the reduction of the destruction of fluorescein by free radicals ([4]; oridonin 4.5 ppm): −4%; dns

CC(=O)Oc1ccccc1C(=O)O [aspirin]
Mean score (inflammation index) [5]: 2 +/− 2.06
